Experimental data published in patent US7378079B2, “Agents for imaging and diagnostic methods using them” (NST Neurosurvival Technologies Ltd., priority 2002, dated 2008).
“Also recorded” adds a separate entry of the source.

Test system: B16 melanoma
Assay: Imaging of tumor cell death in B16 melanoma in vivo, fluorescent microscopy
Parameters: species or system c57/black mice
Conditions: BiCNU 35 mg/Kg; compound i.v. 1-3 mg/animal after 24 h; tumors removed 2 h later
Experimental: Mice bearing B16-melanoma were treated with chemotherapy (BiCNU 35 mg/Kg, one dose), and then injected intravenously with NST920B. Animals were sacrificed two hours later, and the tumor was removed and subjected to fluorescent histopathological assessment, to identify binding of NST920B. Shown is fluorescent microscopic image of a section of the tumor.
Melanoma tumors were induced in c57/black mice by subcutaneous injection of B16-F10 cell line (ATCC CRL-6475). The cell line was maintained in culture in Dulbecco's modified Eagle's medium (DMEM), supplemented with 4 mM of L-glutamine; 100 units/ml of penicillin; 100 μg/ml of streptomycin; 12.5 units/ml of nystatin and 10% of fetal calf serum (FCS). For tumor induction, 10^5 cells in a volume of 100 μl were injected […] to 8 week-old male mice. 15 days later, when tumor diameter reached 5-6 mm, the mice were treated with chemotherapy (BiCNU, 1,3-bis(2-chloroethyl)-1-nitrosourea, at a single dose of 35 mg/Kg). Twenty-four hours after chemotherapy, the mice were injected intravenously with the compounds of the invention NST920B, NST930 and Re-NST904 (1-3 mg/animal). Two hours later, tumors were removed, frozen in liquid nitrogen, and subjected to cryosection. Evaluation of fluorescent signal was performed using fluorescent microscope.

## CN(C)c1cccc2c(S(=O)(=O)N(CCOCCN(CC(=O)O)S(=O)(=O)c3cccc4c(N(C)C)cccc34)CC(=O)O)cccc12 [NST920B]
  uptake by viable, non-apoptotic tumor cells, B16 melanoma: did not manifest such uptake
  uptake into apoptotic tumor cells, B16 melanoma: Uptake of NST920B into apoptotic cells is demonstrated; also recorded: selective uptake
